Data: ChEMBL document CHEMBL1126507, “The synthesis of novel 8a-aza-8a-homoerythromycin derivatives via the beckmann rearrangement of (9z)-erythromycin a oxime” (1993)
In brackets after ≈: the same amount, converted by molar mass.

Experiments:
Format in all cases: functional
Escherichia coli [1] = test: Minimum inhibitory concentration required for antibacterial activity against Escherichia coli MB 2884 strain
Streptococcus pyogenes = test: Minimum inhibitory concentration required for antibacterial activity against Streptococcus pyogenes MB 2874 strain
[2] = system: Staphylococcus epidermidis; test: Minimum inhibitory concentration required for antibacterial activity against Staphylococcus epidermidis MB 5414 strain
Staphylococcus aureus [3] = test: Minimum inhibitory concentration required for antibacterial activity against Staphylococcus aureus MB 2865 strain;value ranges from 0.5-1
Enterobacter cloacae [4] = test: Minimum inhibitory concentration required for antibacterial activity against Enterobacter cloacae CL 4298 strain
Haemophilus influenzae [5] = test: Minimum inhibitory concentration required for antibacterial activity against Haemophilus influenzae CL 1830 strain
Enterococcus faecalis [6] = test: Minimum inhibitory concentration required for antibacterial activity against Enterococcus faecalis MB 5407 strain
Haemophilus influenzae [7] = test: Minimum inhibitory concentration required for antibacterial activity against Haemophilus influenzae MB 5363 strain
Streptococcus pneumoniae = test: Minimum inhibitory concentration required for antibacterial activity against Streptococcus pneumoniae CL 2883 strain
Klebsiella pneumoniae [8] = test: Minimum inhibitory concentration required for antibacterial activity against Klebsiella pneumoniae MB 4005 strain
Haemophilus influenzae [9] = test: Minimum inhibitory concentration required for antibacterial activity against Haemophilus influenzae CL 1830 strain;value ranges from 4-16
[10] = system: Staphylococcus epidermidis; test: Minimum inhibitory concentration required for antibacterial activity against Staphylococcus epidermidis MB 5414 strain;value ranges from 0.25-0.5
Klebsiella pneumoniae [11] = test: Minimum inhibitory concentration required for antibacterial activity against Klebsiella pneumoniae MB 4005 strain;value ranges from 1-2
Staphylococcus aureus [12] = test: Minimum inhibitory concentration required for antibacterial activity against Staphylococcus aureus MB 2865 strain;value ranges from 0.25-1
Escherichia coli [13] = test: Minimum inhibitory concentration required for antibacterial activity against Escherichia coli MB 2884 strain;value ranges from 1-2
Haemophilus influenzae [14] = test: Minimum inhibitory concentration required for antibacterial activity against Haemophilus influenzae MB 5363 strain;value ranges from 0.5-2
Haemophilus influenzae [15] = test: Minimum inhibitory concentration required for antibacterial activity against Haemophilus influenzae CL 1830 strain;value ranges from 64-128
Escherichia coli [16] = test: Minimum inhibitory concentration required for antibacterial activity against Escherichia coli MB 2884 strain;value ranges from 16-64
Staphylococcus aureus [17] = test: microbe, parasite or virus in culture
Klebsiella pneumoniae [18] = test: Minimum inhibitory concentration required for antibacterial activity against Klebsiella pneumoniae MB 4005 strain;value ranges from 32-64
Enterobacter cloacae [19] = test: Minimum inhibitory concentration required for antibacterial activity against Enterobacter cloacae CL 4298 strain;value ranges from 32-64
Enterococcus faecalis [20] = test: Minimum inhibitory concentration required for antibacterial activity against Enterococcus faecalis MB 5407 strain;value ranges from 1-2
Haemophilus influenzae [21] = test: Minimum inhibitory concentration required for antibacterial activity against Haemophilus influenzae MB 5363 strain;value ranges from 2-4
Haemophilus influenzae [22] = test: Minimum inhibitory concentration required for antibacterial activity against Haemophilus influenzae CL 1830 strain;value ranges from 8-16
Enterococcus faecalis [23] = test: Minimum inhibitory concentration required for antibacterial activity against Enterococcus faecalis MB 5407 strain;value ranges from 4-8
Staphylococcus aureus [24] = test: Minimum inhibitory concentration required for antibacterial activity against Staphylococcus aureus MB 2865 strain
Staphylococcus aureus [25] = test: Minimum inhibitory concentration required for antibacterial activity against Staphylococcus aureus MB 2865 strain;value ranges from 32-64
[26] = system: Staphylococcus epidermidis; test: Minimum inhibitory concentration required for antibacterial activity against Staphylococcus epidermidis MB 5414 strain;value ranges from 16-128

| Compound | MIC (Escherichia coli [1]) [µg/mL] | MIC (Streptococcus pyogenes) [µg/mL] | MIC [2] [µg/mL] | MIC (Enterobacter cloacae [4]) [µg/mL] | MIC (Haemophilus influenzae [5]) [µg/mL] | MIC (Enterococcus faecalis [6]) [µg/mL] | MIC (Haemophilus influenzae [7]) [µg/mL] | MIC (Streptococcus pneumoniae) [µg/mL] | MIC (Klebsiella pneumoniae [8]) [µg/mL] | also measured |
| --- | --- | --- | --- | --- | --- | --- | --- | --- | --- | --- |
| CC[C@H]1OC(=O)[C@H](C)[C@@H](O[C@H]2C[C@@](C)(OC)[C@@H](O)[C@H](C)O2)[C@H](C)[C@@H](O[C@@H]2O[C@H](C)C[C@H](N(C)C)[C@H]2O)[C@](C)(O)C[C@@H](C)C(=O)[C@H](C)[C@@H](O)[C@]1(C)O [ERYTHROMYCIN] | – | ≤ 0.06 | 0.125 (≈ 0.17 µM) | – | – | – | – | ≤ 0.06 | – | MIC (Haemophilus influenzae [15]): 64 µg/mL (≈ 87.2 µM); MIC (Escherichia coli [16]): 16 µg/mL (≈ 21.8 µM); MIC (Staphylococcus aureus [17]): 0.125 µg/mL (≈ 0.17 µM); MIC (Klebsiella pneumoniae [18]): 32 µg/mL (≈ 43.6 µM); MIC (Enterobacter cloacae [19]): 32 µg/mL (≈ 43.6 µM); MIC (Enterococcus faecalis [20]): 1 µg/mL (≈ 1.36 µM); MIC (Haemophilus influenzae [21]): 2 µg/mL (≈ 2.73 µM) |
| CC[C@H]1OC(=O)[C@H](C)[C@@H](O[C@H]2C[C@@](C)(OC)[C@@H](O)[C@H](C)O2)[C@H](C)[C@@H](O[C@@H]2O[C@H](C)C[C@H](N(C)C)[C@H]2O)[C@](C)(O)C[C@@H](C)CN(C)[C@H](C)[C@@H](O)[C@]1(C)O [AZITHROMYCIN] | – | ≤ 0.06 | – | 1 (≈ 1.34 µM) | – | – | – | ≤ 0.06 | – | MIC (Haemophilus influenzae [22]): 8 µg/mL (≈ 10.7 µM); MIC [10]: 0.25 µg/mL (≈ 0.334 µM); MIC (Klebsiella pneumoniae [11]): 1 µg/mL (≈ 1.34 µM); MIC (Escherichia coli [13]): 1 µg/mL (≈ 1.34 µM); MIC (Staphylococcus aureus [3]): 0.5 µg/mL (≈ 0.668 µM); MIC (Enterococcus faecalis [23]): 4 µg/mL (≈ 5.34 µM); MIC (Haemophilus influenzae [14]): 0.5 µg/mL (≈ 0.668 µM) |
| CC[C@H]1OC(=O)[C@H](C)[C@@H](O[C@H]2C[C@@](C)(OC)[C@@H](O)[C@H](C)O2)[C@H](C)[C@@H](O[C@@H]2O[C@H](C)C[C@H](N(C)C)[C@H]2O)[C@](C)(O)C[C@@H](C)/N=C2/O[C@@]1(C)[C@H](O)[C@H]2C | 128 (≈ 175 µM) | 2 (≈ 2.74 µM) | 16 (≈ 21.9 µM) | 128 (≈ 175 µM) | > 128 | > 128 | 64 (≈ 87.6 µM) | 4 (≈ 5.47 µM) | > 128 | MIC (Staphylococcus aureus [24]): 16 µg/mL (≈ 21.9 µM) |
| CC[C@H]1OC(=O)[C@H](C)[C@@H](O[C@H]2C[C@@](C)(OC)[C@@H](O)[C@H](C)O2)[C@H](C)[C@@H](O[C@@H]2O[C@H](C)C[C@H](N(C)C)[C@H]2O)[C@@]2(C)C[C@@H](C)N=C(O2)[C@H](C)[C@@H](O)[C@]1(C)O | 128 (≈ 175 µM) | 0.5 (≈ 0.684 µM) | – | 128 (≈ 175 µM) | > 128 | 16 (≈ 21.9 µM) | 64 (≈ 87.6 µM) | 2 (≈ 2.74 µM) | > 128 | MIC (Staphylococcus aureus [25]): 32 µg/mL (≈ 43.8 µM); MIC [26]: 16 µg/mL (≈ 21.9 µM) |

Further lines, with some results ahead:

| MIC (Escherichia coli [1]) [µg/mL] | MIC (Streptococcus pyogenes) [µg/mL] | MIC [2] [µg/mL] | MIC (Enterobacter cloacae [4]) [µg/mL] | MIC (Haemophilus influenzae [5]) [µg/mL] | MIC (Enterococcus faecalis [6]) [µg/mL] | MIC (Haemophilus influenzae [7]) [µg/mL] | MIC (Streptococcus pneumoniae) [µg/mL] | MIC (Klebsiella pneumoniae [8]) [µg/mL] | Compound | also measured |
| --- | --- | --- | --- | --- | --- | --- | --- | --- | --- | --- |
| 2 (≈ 2.72 µM) | ≤ 0.06 | 0.5 (≈ 0.68 µM) | 4 (≈ 5.44 µM) | 32 (≈ 43.5 µM) | 4 (≈ 5.44 µM) | 4 (≈ 5.44 µM) | ≤ 0.06 | 4 (≈ 5.44 µM) | CC[C@H]1OC(=O)[C@H](C)[C@@H](O[C@H]2C[C@@](C)(OC)[C@@H](O)[C@H](C)O2)[C@H](C)[C@@H](O[C@@H]2O[C@H](C)C[C@H](N(C)C)[C@H]2O)[C@](C)(O)C[C@@H](C)NC[C@H](C)[C@@H](O)[C@]1(C)O | MIC (Staphylococcus aureus [3]): 0.5 µg/mL (≈ 0.68 µM) |
| – | ≤ 0.06 | – | 1 (≈ 1.34 µM) | – | 2 (≈ 2.67 µM) | – | ≤ 0.06 | – | CC[C@H]1OC(=O)[C@H](C)[C@@H](O[C@H]2C[C@@](C)(OC)[C@@H](O)[C@H](C)O2)[C@H](C)[C@@H](O[C@@H]2O[C@H](C)C[C@H](N(C)C)[C@H]2O)[C@](C)(O)C[C@@H](C)N(C)C[C@H](C)[C@@H](O)[C@]1(C)O [L-701677] | MIC (Haemophilus influenzae [9]): 4 µg/mL (≈ 5.34 µM); MIC [10]: 0.25 µg/mL (≈ 0.334 µM); MIC (Klebsiella pneumoniae [11]): 1 µg/mL (≈ 1.34 µM); MIC (Staphylococcus aureus [12]): 0.25 µg/mL (≈ 0.334 µM); MIC (Escherichia coli [13]): 1 µg/mL (≈ 1.34 µM); MIC (Haemophilus influenzae [14]): 0.5 µg/mL (≈ 0.668 µM) |
| 16 (≈ 21.4 µM) | ≤ 0.06 | 0.5 (≈ 0.668 µM) | – | – | 8 (≈ 10.7 µM) | 32 (≈ 42.7 µM) | ≤ 0.06 | 32 (≈ 42.7 µM) | CC[C@H]1OC(=O)[C@H](C)[C@@H](O[C@H]2C[C@@](C)(OC)[C@@H](O)[C@H](C)O2)[C@H](C)[C@@H](O[C@@H]2O[C@H](C)C[C@H](N(C)C)[C@H]2O)[C@](C)(O)C[C@@H](C)NC(=O)[C@H](C)[C@@H](O)[C@]1(C)O | MIC (Staphylococcus aureus [24]): 0.5 µg/mL (≈ 0.668 µM) |
